Results taken from PubChem BioAssay AID248 (DTP/NCI, 2004).
Inconclusive results and toxic doses are left out. Cut-off read from the data, not from the text of the source: active = T/C of 150% or more; inactive = T/C below 125%.

System: L1210 leukemia ip in BDF1 mice, survival T/C
Experiment: NCI In Vivo Anticancer Drug Screen. Data for tumor model L1210 Leukemia (intraperitoneal) in B6D2F1 (BDF1) mice
Conditions: endpoint: mean survival time, schedule: Q01DX001 (ip), vehicle: saline, higher = longer survival
Summary of the method: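 Mice bearing the transplanted tumor received compound or vehicle. Survival of the treated group was divided by that of the vehicle-treated control group to give the ratio.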

Measured: T/C

CCOC(=O)C(Cc1ccc(O)c([N+](=O)[O-])c1)N1C(=O)c2ccccc2C1=O (stereo not drawn)
inactive: dose: 100.0 mg/kg/injection 107 % of control | dose: 200.0 mg/kg/injection 92 % of control | dose: 400.0 mg/kg/injection 95 % of control
